This passage reports IC50 results from patent publication US20140288077A1, “SUBSTITUTED 4-PHENOXYPHENOL ANALOGS AS MODULATORS OF PROLIFERATING CELL NUCLEAR ANTIGEN ACTIVITY” (ST. JUDE CHILDREN'S RESEARCH HOSPITAL, priority 2011, published 2014).

One may read the pIC50 as the negative decadic logarithm of the IC50, by convention in mol/L.

pIC50: −log10 of the molar value.

T1 sequence (P12004 whole entry): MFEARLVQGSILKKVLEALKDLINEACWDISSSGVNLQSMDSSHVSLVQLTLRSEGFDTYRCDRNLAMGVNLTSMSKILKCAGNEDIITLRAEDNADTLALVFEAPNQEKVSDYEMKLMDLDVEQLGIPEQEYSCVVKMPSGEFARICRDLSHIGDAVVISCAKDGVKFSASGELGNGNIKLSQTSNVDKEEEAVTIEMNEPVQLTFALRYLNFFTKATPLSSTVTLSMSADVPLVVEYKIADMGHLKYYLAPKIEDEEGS

The assay has as its target T1, human PCNA recombinant protein (Homo sapiens, UniProt P12004).
T1 construct: The full length human PCNA; made in house; host or cells: Escherichia coli BL21(DE3)
In words: Fluorescent polarization assay: competition with 5-FAM-labeled PL peptide for PCNA. It counts as binding. The following applies: Table 2; inhibition of FAM-PL peptide binding to PCNA; read-out: IC50. The source says:
To determine the binding of the disclosed compounds to the human PCNA recombinant protein, a fluorescence polarization assay was employed. The assay is based on competition between a fluorescent tracer and increasing amounts of competing compound, i.e. a disclosed compound, determined as fluorescence polarization intensity (mP). The fluorescent tracer was 5-carboxyfluorescein (5-FAM) labeled PL peptide (“FAM-PL”). […] PCNA was a recombinant protein purified using standard methods known to one skilled in the art using an expression construct obtained from Dr. Toshiki Tsurimoto, Kyusyu University, Japan.
The volumes of PCNA and FAM-PL were adjusted to ensure that the final concentration of PCNA was 200 nM and FAM-PL was 10 nM. Assays were carried out in 384 well plates in a total volume of about 20-30 μL. […] Fluorescence measurements were made immediately after dilution in the assay plate. […] FP values (P) were calculated in millipolarization units (mP),
where I∥ and I⊥ are the emission intensities recorded, respectively, in the parallel and perpendicular directions relative to the plane of excitation polarization, after background intensity correction. G-factor values (G) for the fluorescein spectral window were measured using 1 nM fluorescein.
Alternatively, the fluorescent polarization assay can be carried out as described in the following. […] Briefly, 20 μl of the assay solution was transferred into each well of a black 384-well plate using Wellmate (Matrix). […] The negative control in each plate was DMSO, whereas the positive control was unlabeled PL-peptide as a self-competitor. […] FP values were calculated in millipolarization units. All data processing was performed using in-house programs in the Pipeline Pilot (Accelrys, version 7.0.1). The quality of the primary screen was assessed by Z-prime and other screening quality metrics.
With `O=C(Cc1cc(I)c(Oc2ccc(O)c(I)c2)c(I)c1)NC1CCCCC1` [MLAE-029-2, N-Cyclohexyl-2-(4-(4-hydroxy-3-iodophenoxy)-3,5-diiodophenyl)acetamide], the negative logarithm of the IC50 (pIC50) is under 4.30.

`O=C(Cc1cc(I)c(Oc2ccc(O)c(I)c2)c(I)c1)NCCc1ccccc1` [MLAE-029-3, 2-(4-(4-hydroxy-3-iodophenoxy)-3,5-diiodophenyl)-N-phenethylacetamide]: the negative-log IC50 (pIC50) is under 4.30.

With `O=C(Cc1cc(I)c(Oc2ccc(O)c(I)c2)c(I)c1)NCc1ccccc1` [MLAE-029-4, N-Benzyl-2-(4-(4-hydroxy-3-iodophenoxy)-3,5-diiodophenyl)acetamide], the pIC50 was under 4.30.

For the compound `COc1ccc(NC(=O)Cc2cc(I)c(Oc3ccc(O)c(I)c3)c(I)c2)cc1` [MLAE-029-7, 2-(4-(4-Hydroxy-3-iodophenoxy)-3,5-diiodophenyl)-N-(4-methoxyphenyl)acetamide], the negative logarithm of the IC50 (pIC50) is under 4.30.

With `CCCCCNC(=O)Cc1cc(I)c(Oc2ccc(O)c(I)c2)c(I)c1` [MLAE-029-9, 2-(4-(4-Hydroxy-3-iodophenoxy)-3,5-diiodophenyl)-N-pentylacetamide], the pIC50 is under 4.30.

Consider `O=C1CN(C(=O)CCc2cc(I)c(Oc3ccc(O)cc3)c(I)c2)CCN1` [MLAE-034, 4-(3-(4-(4-hydroxyphenoxy)-3,5-diiodophenyl)propanoyl)piperazin-2-one], for which the pIC50 was under 4.30.

Take `COc1ccc(Oc2c(I)cc(CCC(=O)NS(C)(=O)=O)cc2I)cc1` [MLAE-036, 3-(3,5-diiodo-4-(4-methoxyphenoxy)phenyl)-N-(methylsulfonyl)propanamide]: the pIC50 is under 4.30.

Regarding `COc1ccc(Oc2c(I)cc(CCC(=O)N3CCCCC3)cc2I)cc1` [MLAE-039, 3-(3,5-Diiodo-4-(4-methoxyphenoxy)phenyl)-1-(piperidin-1-yl)propan-1-one], the pIC50 is 5.02.

Regarding `CNC(=O)CCc1cc(I)c(Oc2ccc(OC)cc2)c(I)c1` [MLAE-040, 3-(3,5-Diiodo-4-(4-methoxyphenoxy)phenyl)-N-methylpropanamide], the negative-log IC50 (pIC50) was 4.77.

As to `O=C(CCc1cc(I)c(Oc2ccc(O)cc2)c(I)c1)N1CCCCC1` [MLAE-041, 3-(4-(4-hydroxyphenoxy)-3,5-diiodophenyl)-1-(piperidin-1-yl)propan-1-one], the pIC50 was 5.62.

`COc1ccc(Oc2c(I)cc(CC(=O)N3CCNC(=O)C3)cc2I)cc1` [MLAE-045, 4-(2-(3,5-Diiodo-4-(4-methoxyphenoxy)phenyl)acetyl)piperazin-2-one]: the pIC50 is 5.68.

For the compound `COc1ccc(Oc2c(I)cc(CC(=O)NS(C)(=O)=O)cc2I)cc1` [MLAE-046, 2-(3,5-Diiodo-4-(4-methoxyphenoxy)phenyl)-N-(methylsulfonyl)acetamide], the negative-log IC50 (pIC50) was under 4.30.

`O=C(Cc1cc(I)c(Oc2ccc(O)cc2)c(I)c1)N1CCOCC1` [MLAE-047, 2-(4-(4-hydroxyphenoxy)-3,5-diiodophenyl)-1-morpholinoethanone]: the pIC50 is 5.20.

Regarding `O=C1CN(C(=O)Cc2cc(I)c(Oc3ccc(O)cc3)c(I)c2)CCN1` [MLAE-048, 4-(2-(4-(4-Hydroxyphenoxy)-3,5-diiodophenyl)acetyl)piperazin-2-one], the pIC50 is 5.04.

For `CS(=O)(=O)NC(=O)Cc1cc(I)c(Oc2ccc(O)cc2)c(I)c1` [MLAE-049, 2-(4-(4-Hydroxyphenoxy)-3,5-diiodophenyl)-N-(methylsulfonyl)acetamide], the pIC50 is 5.04.

Consider `COCCNC(=O)CCc1cc(I)c(Oc2ccc(O)cc2)c(I)c1` [MLAE-051-1, 3-(4-(4-Hydroxyphenoxy)-3,5-diiodophenyl)-N-(2-methoxyethyl)propanamide], for which the pIC50 is 5.31.

For `CCS(=O)(=O)N1CCN(C(=O)CCc2cc(I)c(Oc3ccc(O)cc3)c(I)c2)CC1` [MLAE-051-3, 1-(4-(Ethylsulfonyl)piperazin-1-Yl)-3-(4-(4-hydroxyphenoxy)-3,5-diiodophenyl)propan-1-one], the pIC50 is 5.57.

`CCCOCCNC(=O)CCc1cc(I)c(Oc2ccc(O)cc2)c(I)c1` [MLAE-054-3, 3-(4-(4-Hydroxyphenoxy)-3,5-diiodophenyl)-N-(2-propoxyethyl)propanamide]: the negative logarithm of the IC50 (pIC50) was 5.08.

Consider `COCCCNC(=O)CCc1cc(I)c(Oc2ccc(O)cc2)c(I)c1` [MLAE-054-4, 3-(4-(4-Hydroxyphenoxy)-3,5-diiodophenyl)-N-(3-methoxypropyl)propanamide], for which the negative logarithm of the IC50 (pIC50) was 5.28.

On to `O=S(=O)(N[C@H](CO)Cc1cc(I)c(Oc2ccc(O)cc2)c(I)c1)c1ccccc1` [MLAE-058-2, (S)—N-(1-Hydroxy-3-(4-(4-hydroxyphenoxy)-3,5-diiodophenyl)propan-2-yl)benzenesulfonamide], for which the pIC50 is 5.22.

As for `COc1ccc(S(=O)(=O)N[C@H](CO)Cc2cc(I)c(Oc3ccc(O)cc3)c(I)c2)cc1` [MLAE-058-3, (S)—N-(1-Hydroxy-3-(4-(4-hydroxyphenoxy)-3,5-diiodophenyl)propan-2-yl)-4-methoxybenzenesulfonamide], the negative-log IC50 (pIC50) is 5.01.

On to `O=S(=O)(N[C@H](CO)Cc1cc(I)c(Oc2ccc(O)cc2)c(I)c1)c1ccc(O)cc1` [MLAE-060, (S)-4-Hydroxy-N-(1-hydroxy-3-(4-(4-hydroxyphenoxy)-3,5-diiodophenyl)propan-2-yl)benzenesulfonamide], for which the negative-log IC50 (pIC50) was 4.49.

As for `Cc1noc(C)c1S(=O)(=O)N[C@H](CO)Cc1cc(I)c(Oc2ccc(O)cc2)c(I)c1` [MLAE-061, (S)—N-(1-Hydroxy-3-(4-(4-hydroxyphenoxy)-3,5-diiodophenyl)propan-2-yl)-3,5-dimethylisoxazole-4-sulfonamide], the pIC50 is 4.80.

`O=C(CCc1cc(I)c(Oc2ccc(O)c(C(=O)Nc3ccccc3)c2)c(I)c1)NCCO` [MLAF-007, 2-Hydroxy-5-(4-(3-((2-hydroxyethyl)amino)-3-oxopropyl)-2,6-diiodophenoxy)-N-phenylbenzamide]: the negative logarithm of the IC50 (pIC50) was 6.40.

For the compound `O=C(CCc1cc(I)c(Oc2ccc(O)c(C(=O)NCc3ccccc3)c2)c(I)c1)NCCO` [MLAF-008, N-Benzyl-2-hydroxy-5-(4-(3-((2-hydroxyethyl)amino)-3-oxopropyl)-2,6-diiodophenoxy)benzamide], the negative logarithm of the IC50 (pIC50) is 6.40.

Regarding `CS(=O)(=O)NC(=O)CCc1cc(I)c(Oc2ccc(O)c(C(=O)Nc3ccccc3)c2)c(I)c1` [MLAF-012, 5-(2,6-diiodo-4-(3-(methylsulfonamido)-3-oxopropyl)phenoxy)-2-hydroxy-N-phenylbenzamide], the pIC50 is under 4.30.

For the compound `CS(=O)(=O)NC(=O)CCc1cc(I)c(Oc2ccc(O)c(C(=O)NCc3ccccc3)c2)c(I)c1` [MLAF-013, N-Benzyl-5-(2,6-diiodo-4-(3-(methylsulfonamido)-3-oxopropyl)phenoxy)-2-hydroxybenzamide], the pIC50 was 5.85.

Consider `O=C(O)CCc1ccc(I)c(Oc2ccc(O)cc2)c1I` [MLAF-050, 3-(3-(4-Hydroxyphenoxy)-2,4-diiodophenyl)propanoic acid], for which the negative-log IC50 (pIC50) is 4.72.

For the compound `O=C(CCc1ccc(I)c(Oc2ccc(O)cc2)c1I)NCCO` [MLAF-051], the pIC50 was 5.02.

`N[C@H](CNC(=O)CO)Cc1cc(I)c(Oc2ccc(O)cc2)c(I)c1` [MLAF-083, (S)—N-(2-amino-3-(4-(4-hydroxyphenoxy)-3,5-diiodophenyl)propyl)-2-hydroxyacetamide]: the pIC50 is 5.85.

With `N[C@H](CNC(=O)NCc1ccccc1)Cc1cc(I)c(Oc2ccc(O)cc2)c(I)c1` [MLAF-085, (S)-1-(2-amino-3-(4-(4-hydroxyphenoxy)-3,5-diiodophenyl)propyl)-3-benzylurea], the negative logarithm of the IC50 (pIC50) was 6.00.

Take `CCCCCCNC(=O)NC[C@@H](N)Cc1cc(I)c(Oc2ccc(O)cc2)c(I)c1` [MLAF-086, (S)-1-(2-amino-3-(4-(4-hydroxyphenoxy)-3,5-diiodophenyl)propyl)-3-hexylurea]: the pIC50 is 5.89.

For the compound `O=C1NC[C@H](Cc2cc(I)c(Oc3ccc(O)cc3)c(I)c2)N1` [MLAG-060, (S)-4-(4-(4-hydroxyphenoxy)-3,5-diiodobenzyl)imidazolidin-2-one], the pIC50 is 5.24.

`CNC(=O)Cc1cc(I)c(Oc2ccc(O)cc2)c(I)c1` [MLAG-066-1, 2-(4-(4-hydroxyphenoxy)-3,5-diiodophenyl)-N-Methylacetamide]: the pIC50 was 5.08.

On to `CN(C)C(=O)Cc1cc(I)c(Oc2ccc(O)cc2)c(I)c1` [MLAG-066-2, 2-(4-(4-hydroxyphenoxy)-3,5-diiodophenyl)-N,N-dimethylacetamide], for which the pIC50 is 5.12.

On to `CCNC(=O)Cc1cc(I)c(Oc2ccc(O)cc2)c(I)c1` [MLAG-066-3, N-ethyl-2-(4-(4-hydroxyphenoxy)-3,5-diiodophenyl)acetamide], for which the negative-log IC50 (pIC50) was 5.18.

As for `NCc1cc(I)c(Oc2ccc(O)cc2)c(I)c1` [MLAG-082, 4-(4-(aminomethyl)-2,6-diiodophenoxy)phenol], the pIC50 was 5.80.

With `N[C@H](CO)Cc1cc(I)c(Oc2ccc(O)c(I)c2)c(I)c1` [MLAG-083, (S)-4-(4-(2-amino-3-hydroxypropyl)-2,6-diiodophenoxy)-2-iodophenol], the negative-log IC50 (pIC50) is 6.22.
